Measurements from patent US20240270771A1, “Compound containing phosphate group, pharmaceutical composition containing same, preparation method therefor and use thereof” (SHANGHAI RAISING PHARMACEUTICAL CO., LTD., priority 2021, published 2024).

Assays:
[1] = Pharmacokinetic study, absorption test (TM and TDP in whole blood); format: in vivo, SD rats; conditions: same drug dose, single gavage, rats
Description: (§1) The SD rats used in this test were purchased from Zhejiang Charles rive Laboratory Animal Co., Ltd. Both male and female rats of SPF grade weighting about 250 g were used.
(§2) Preparation of the test article: a proper amount of test article was weighed and ground as fine powder in a mortar. A certain amount of the vehicle was added to a proper container, and then the ground test article was added to the container under magnetic stirring. The mixture was stirred until the appearance is uniform.
The SD rats were divided into 3 groups (6 rats in each group, half male and half female). […] Blood was collected (about 200 µL/time) before drug administration (0 min) and 3 min, 8 min, 15 min, 30 min, 1 h, 2 h, 3 h, 5 h, 8 h, 12 h, 24 h and 48 h after drug administration. Blood was anticoagulated with EDTA and placed on ice after collection. […]
(§3) The concentrations of TM and TDP in the samples were determined by HPLC-FLD.
(§4) The non-compartment model of the DAS software was used to calculate the pharmacokinetic parameters of TM and TDP in blood of rats after administration. The concentration of TM in the brain tissue after the drug administration in rats was measured, and the mean value and standard deviation were calculated. The area under the drug-time curve AUC was calculated using the trapezoidal method.

[2] = Pharmacokinetic study, brain distribution test (TM in brain and whole blood); format: in vivo, SD rats; conditions: single gavage to rats
Description: as §1, §2
The male SD rats were divided into three groups (16 rats in each group) (4 animals were sacrificed at 4 time points). […] The animals were sacrificed at 5 min, 1 h, 3 h, and 9 h after the administration. The brain was taken out immediately after sacrifice, rinsed with ice-cold water and rinsed. 50 mg of the brain tissue was weighed, added to 0.45 mL of 100 mM dipotassium hydrogen phosphate buffer (pH=5.0) and homogenized. Blood samples were taken simultaneously and anticoagulated with EDTA. After collection, blood samples were placed on ice. 150 μL of whole blood was taken and 150 μL of 5.2% perchloric acid was added to determine TM. Another 4 animals were gavage administered with normal saline for the determination of endogenous TM concentration. All samples were frozen and stored in a −80° C. refrigerator.
as §3, §4

Compound: CCCC(CCC)C(=O)S/C(CCOP(=O)(O)O)=C(/C)N(C=O)Cc1cnc(C)nc1N [Compound 1, (Z)—S-(2-(N-((4-amino-2-methylpyrimidin-5-yl)methyl)formamido)-5-(phosphonooxy)pent-2-en-3-yl) 2-propylpentanethioate]
- TM and TDP exposures compared with BTMP and Comparative compound 2 administration groups [1]: higher
- t1/2 of TDP compared with BTMP or Comparative compound 2 administration group [1]: significantly higher
- AUC of TM in the brain, times of that of BTMP administration group [2]: 1.56 times
- AUC of TM in the brain, times of that of the Comparative compound 2 administration group [2]: 2.08 times
- AUC of TM in the brain ([2]; trapezoidal method, calculated after deducting the concentration at time zero): 1156.6 ng·h/g
